In ChEMBL document CHEMBL4368932 (Bioorg Med Chem, 2019):
Values belong to the molecule of their own block, whether it stands above or below them. Activity calls are given as the source filed them. The calls are words filed in the database; no cut-off is given here.

Key:
[1] = target: T1, Phosphatidylinositol 4,5-bisphosphate 3-kinase catalytic subunit delta isoform (Homo sapiens) (UniProt O00329); test: Inhibition of recombinant human PI3Kdelta at 0.1 uM using PIP2 as substrate after 35 to 40 mins by HTRF assay relative to control
T1 sequence (whole entry): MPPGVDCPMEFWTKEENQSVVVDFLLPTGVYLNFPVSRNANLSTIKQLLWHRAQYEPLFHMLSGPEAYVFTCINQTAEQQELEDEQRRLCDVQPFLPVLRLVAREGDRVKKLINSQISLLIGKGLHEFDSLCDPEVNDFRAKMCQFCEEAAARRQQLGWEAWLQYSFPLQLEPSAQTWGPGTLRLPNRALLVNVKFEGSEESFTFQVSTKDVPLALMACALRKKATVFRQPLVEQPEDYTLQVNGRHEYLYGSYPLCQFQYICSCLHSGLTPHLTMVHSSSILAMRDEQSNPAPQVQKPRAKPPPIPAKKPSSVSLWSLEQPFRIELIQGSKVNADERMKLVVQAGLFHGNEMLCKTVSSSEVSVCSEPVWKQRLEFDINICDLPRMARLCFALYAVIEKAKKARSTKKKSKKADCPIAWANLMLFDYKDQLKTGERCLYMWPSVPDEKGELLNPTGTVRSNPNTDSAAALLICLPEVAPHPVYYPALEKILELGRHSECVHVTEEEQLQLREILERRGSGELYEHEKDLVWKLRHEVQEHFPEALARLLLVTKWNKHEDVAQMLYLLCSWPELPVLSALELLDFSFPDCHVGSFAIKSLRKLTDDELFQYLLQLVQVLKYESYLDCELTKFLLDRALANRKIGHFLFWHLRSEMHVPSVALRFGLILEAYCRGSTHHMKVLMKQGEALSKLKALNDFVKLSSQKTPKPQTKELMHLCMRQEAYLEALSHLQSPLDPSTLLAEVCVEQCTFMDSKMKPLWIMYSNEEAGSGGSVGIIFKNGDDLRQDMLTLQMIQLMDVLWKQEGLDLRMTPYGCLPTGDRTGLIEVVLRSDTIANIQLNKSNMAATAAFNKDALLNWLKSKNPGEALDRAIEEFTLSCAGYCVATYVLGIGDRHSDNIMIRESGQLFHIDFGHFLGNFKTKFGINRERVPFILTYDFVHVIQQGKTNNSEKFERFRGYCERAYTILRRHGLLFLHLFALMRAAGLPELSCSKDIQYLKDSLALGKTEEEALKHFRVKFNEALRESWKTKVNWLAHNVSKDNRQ

[2] = target: T2, Phosphatidylinositol 4,5-bisphosphate 3-kinase catalytic subunit delta isoform (Homo sapiens, UniProt O00329); test: Inhibition of recombinant human PI3Kdelta using PIP2 as substrate after 35 to 40 mins by HTRF assay
T2 sequence (O00329 whole entry): T1 sequence (whole entry)

[3] = target: Phosphatidylinositol 4,5-bisphosphate 3-kinase catalytic subunit alpha isoform (Homo sapiens, UniProt P42336); test: Inhibition of human PI3Kalpha using phosphatidyl inositol as substrate after 3 hrs by Kinase-Glo Plus reagent-based luminescence assay
Phosphatidylinositol 4,5-bisphosphate 3-kinase catalytic subunit alpha isoform, sequence (P42336 whole entry, canonical isoform): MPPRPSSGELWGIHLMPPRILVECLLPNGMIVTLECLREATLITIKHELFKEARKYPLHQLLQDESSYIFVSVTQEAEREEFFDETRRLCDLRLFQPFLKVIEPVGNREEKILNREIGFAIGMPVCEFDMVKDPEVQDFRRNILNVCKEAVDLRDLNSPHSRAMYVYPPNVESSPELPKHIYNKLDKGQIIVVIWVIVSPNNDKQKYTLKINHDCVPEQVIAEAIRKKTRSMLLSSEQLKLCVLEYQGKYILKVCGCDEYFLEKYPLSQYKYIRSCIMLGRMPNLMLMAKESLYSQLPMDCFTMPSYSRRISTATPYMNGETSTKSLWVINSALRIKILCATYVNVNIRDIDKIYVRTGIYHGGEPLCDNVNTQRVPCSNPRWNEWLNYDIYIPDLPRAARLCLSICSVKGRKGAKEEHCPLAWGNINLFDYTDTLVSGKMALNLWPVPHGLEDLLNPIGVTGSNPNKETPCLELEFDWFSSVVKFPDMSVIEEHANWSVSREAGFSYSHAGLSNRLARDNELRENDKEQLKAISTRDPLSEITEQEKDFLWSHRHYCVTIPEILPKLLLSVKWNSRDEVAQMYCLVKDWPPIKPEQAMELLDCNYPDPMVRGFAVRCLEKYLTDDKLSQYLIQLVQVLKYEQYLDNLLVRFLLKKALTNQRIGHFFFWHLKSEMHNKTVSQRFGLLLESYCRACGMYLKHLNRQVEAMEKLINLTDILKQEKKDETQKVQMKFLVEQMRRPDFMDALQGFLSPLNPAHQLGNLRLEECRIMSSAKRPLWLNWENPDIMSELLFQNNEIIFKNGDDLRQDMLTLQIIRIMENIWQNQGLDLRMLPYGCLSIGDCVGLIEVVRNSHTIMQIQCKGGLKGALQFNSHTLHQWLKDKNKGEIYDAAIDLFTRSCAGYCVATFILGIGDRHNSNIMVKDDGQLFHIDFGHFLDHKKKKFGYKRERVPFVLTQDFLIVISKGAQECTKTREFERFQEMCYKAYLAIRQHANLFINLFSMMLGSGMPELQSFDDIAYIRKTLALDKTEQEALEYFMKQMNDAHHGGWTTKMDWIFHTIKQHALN

[4] = target: Phosphatidylinositol 4,5-bisphosphate 3-kinase catalytic subunit beta isoform (Homo sapiens, UniProt P42338); test: Inhibition of recombinant human PI3Kbeta using PIP2 as substrate after 35 to 40 mins by HTRF assay
Phosphatidylinositol 4,5-bisphosphate 3-kinase catalytic subunit beta isoform, sequence (P42338 whole entry, canonical isoform): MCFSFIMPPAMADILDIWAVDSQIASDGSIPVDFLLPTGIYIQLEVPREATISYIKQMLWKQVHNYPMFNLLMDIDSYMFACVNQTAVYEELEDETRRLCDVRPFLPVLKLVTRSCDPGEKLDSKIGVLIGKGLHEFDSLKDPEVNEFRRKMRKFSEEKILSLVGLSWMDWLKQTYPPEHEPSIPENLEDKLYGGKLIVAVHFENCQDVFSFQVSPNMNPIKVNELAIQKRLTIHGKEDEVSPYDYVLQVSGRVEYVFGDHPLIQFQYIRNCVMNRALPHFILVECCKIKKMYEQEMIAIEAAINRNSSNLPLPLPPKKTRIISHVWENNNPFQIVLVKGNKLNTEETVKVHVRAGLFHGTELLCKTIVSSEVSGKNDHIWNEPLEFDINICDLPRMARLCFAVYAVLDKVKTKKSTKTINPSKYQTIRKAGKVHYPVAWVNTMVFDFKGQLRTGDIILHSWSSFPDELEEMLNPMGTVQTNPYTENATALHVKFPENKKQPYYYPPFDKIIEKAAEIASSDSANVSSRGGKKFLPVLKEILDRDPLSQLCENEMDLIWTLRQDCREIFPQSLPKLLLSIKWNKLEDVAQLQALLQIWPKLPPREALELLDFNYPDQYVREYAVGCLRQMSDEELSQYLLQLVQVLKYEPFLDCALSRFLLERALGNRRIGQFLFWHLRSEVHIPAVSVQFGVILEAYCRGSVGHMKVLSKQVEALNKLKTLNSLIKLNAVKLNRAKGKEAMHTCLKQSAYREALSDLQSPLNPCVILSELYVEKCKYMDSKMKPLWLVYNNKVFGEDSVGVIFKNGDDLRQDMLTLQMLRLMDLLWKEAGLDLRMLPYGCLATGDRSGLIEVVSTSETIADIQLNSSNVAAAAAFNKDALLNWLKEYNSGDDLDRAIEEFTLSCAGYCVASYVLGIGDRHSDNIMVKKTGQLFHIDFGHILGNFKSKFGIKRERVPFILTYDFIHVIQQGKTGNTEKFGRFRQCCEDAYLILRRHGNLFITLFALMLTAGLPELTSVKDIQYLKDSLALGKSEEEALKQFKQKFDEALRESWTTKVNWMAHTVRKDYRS

[5] = target: Phosphatidylinositol 4,5-bisphosphate 3-kinase catalytic subunit gamma isoform (Homo sapiens, UniProt P48736); test: Inhibition of recombinant human PI3Kgamma using PIP2 as substrate after 35 to 40 mins by HTRF assay
Phosphatidylinositol 4,5-bisphosphate 3-kinase catalytic subunit gamma isoform, sequence (P48736 whole entry, canonical isoform): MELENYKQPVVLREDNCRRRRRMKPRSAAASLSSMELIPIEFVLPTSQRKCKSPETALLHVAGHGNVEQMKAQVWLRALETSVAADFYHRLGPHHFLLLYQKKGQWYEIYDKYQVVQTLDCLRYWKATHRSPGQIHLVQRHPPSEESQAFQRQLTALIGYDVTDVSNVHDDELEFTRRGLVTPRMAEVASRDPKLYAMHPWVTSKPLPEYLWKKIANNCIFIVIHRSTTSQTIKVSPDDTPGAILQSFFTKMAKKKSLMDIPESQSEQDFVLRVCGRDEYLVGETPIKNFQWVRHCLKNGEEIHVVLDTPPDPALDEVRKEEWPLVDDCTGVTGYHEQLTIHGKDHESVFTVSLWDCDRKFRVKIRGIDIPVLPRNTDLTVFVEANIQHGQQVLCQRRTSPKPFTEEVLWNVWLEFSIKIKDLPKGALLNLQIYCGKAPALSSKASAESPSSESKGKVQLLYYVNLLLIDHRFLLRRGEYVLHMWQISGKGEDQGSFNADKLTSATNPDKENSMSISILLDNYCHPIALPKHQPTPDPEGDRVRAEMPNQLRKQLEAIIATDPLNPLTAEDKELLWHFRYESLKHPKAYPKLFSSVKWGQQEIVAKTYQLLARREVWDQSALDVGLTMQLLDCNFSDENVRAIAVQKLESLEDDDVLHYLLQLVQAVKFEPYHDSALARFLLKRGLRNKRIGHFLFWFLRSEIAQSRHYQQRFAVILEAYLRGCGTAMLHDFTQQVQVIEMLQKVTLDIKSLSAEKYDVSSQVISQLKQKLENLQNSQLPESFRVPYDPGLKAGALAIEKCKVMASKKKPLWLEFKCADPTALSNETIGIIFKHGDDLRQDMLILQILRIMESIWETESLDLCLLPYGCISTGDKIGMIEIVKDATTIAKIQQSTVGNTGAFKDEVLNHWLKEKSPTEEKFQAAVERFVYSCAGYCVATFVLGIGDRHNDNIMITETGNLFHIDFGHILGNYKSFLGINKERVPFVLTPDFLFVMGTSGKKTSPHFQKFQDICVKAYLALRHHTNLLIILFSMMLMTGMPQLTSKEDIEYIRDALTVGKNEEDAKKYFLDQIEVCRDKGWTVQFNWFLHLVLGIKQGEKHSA

B-cell = test: Antiproliferative activity against anti-IgM antibody-stimulated BALB/c mouse B cells after 2 days by Alamar Blue reagent-based assay; details: 48 h
[6] = Intrinsic clearance in CD1 mouse liver microsomes at 0.2 uM up to 45 mins in presence of NADPH by LC-MS/MS analysis; assay type: ADME, Microsome; details: read-out: CLH
[7] = Aqueous solubility of compound at pH 6.8 Japanese Pharmacopoeia 2nd fluid for disintegration test at 130 uM after 20 hrs by liquid chromatography method; assay type: physicochemical
[8] = Permeability of the compound at 50 uM after 2 hrs by PAMPA; assay type: ADME; details: read-out: permeability
Cytochrome P450 1A2 = target: T3, Cytochrome P450 1A2 (Homo sapiens, UniProt P05177); test: Inhibition of CYP1A2 in human liver microsomes at 5 uM using phenacetin as substrate after 20 mins by LC-MS/MS analysis; assay type: ADME
T3 sequence (P05177 whole entry): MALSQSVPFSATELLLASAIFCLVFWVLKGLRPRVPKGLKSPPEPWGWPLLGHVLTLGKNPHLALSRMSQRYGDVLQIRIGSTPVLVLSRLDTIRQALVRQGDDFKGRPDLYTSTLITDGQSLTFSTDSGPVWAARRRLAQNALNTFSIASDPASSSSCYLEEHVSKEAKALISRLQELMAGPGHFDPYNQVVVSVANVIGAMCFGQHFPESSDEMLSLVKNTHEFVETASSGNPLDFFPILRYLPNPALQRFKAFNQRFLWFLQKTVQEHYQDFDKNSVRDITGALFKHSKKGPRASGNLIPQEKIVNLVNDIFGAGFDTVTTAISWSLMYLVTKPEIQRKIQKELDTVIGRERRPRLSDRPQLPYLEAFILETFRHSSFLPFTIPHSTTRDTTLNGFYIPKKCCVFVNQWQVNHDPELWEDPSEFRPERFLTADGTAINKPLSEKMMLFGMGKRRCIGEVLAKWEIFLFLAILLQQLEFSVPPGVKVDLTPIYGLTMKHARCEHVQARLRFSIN

Cytochrome P450 2C8 = target: T4, Cytochrome P450 2C8 (Homo sapiens, UniProt P10632); test: Inhibition of CYP2C8 in human liver microsomes at 5 uM using amodiaquine as substrate after 20 mins by LC-MS/MS analysis; assay type: ADME
T4 sequence (P10632 whole entry): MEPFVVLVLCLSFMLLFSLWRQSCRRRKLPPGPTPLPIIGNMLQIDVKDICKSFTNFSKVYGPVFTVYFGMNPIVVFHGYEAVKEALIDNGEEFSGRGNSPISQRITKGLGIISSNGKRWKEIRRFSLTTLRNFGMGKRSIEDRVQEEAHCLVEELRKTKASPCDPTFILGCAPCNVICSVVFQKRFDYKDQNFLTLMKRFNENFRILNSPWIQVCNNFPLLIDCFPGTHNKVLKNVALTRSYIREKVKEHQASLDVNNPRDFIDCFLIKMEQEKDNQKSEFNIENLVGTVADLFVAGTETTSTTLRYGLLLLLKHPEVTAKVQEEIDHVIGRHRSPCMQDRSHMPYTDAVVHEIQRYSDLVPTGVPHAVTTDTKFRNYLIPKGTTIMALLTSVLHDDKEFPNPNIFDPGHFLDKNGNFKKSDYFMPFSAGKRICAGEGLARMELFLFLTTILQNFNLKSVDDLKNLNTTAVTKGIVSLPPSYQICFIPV

Cytochrome P450 2C9 = Cytochrome P450 2C9 (Homo sapiens, UniProt P11712); test: Inhibition of CYP2C9 in human liver microsomes at 5 uM using diclofenac as substrate after 20 mins by LC-MS/MS analysis; assay type: ADME
Cytochrome P450 2C9, sequence (P11712 whole entry): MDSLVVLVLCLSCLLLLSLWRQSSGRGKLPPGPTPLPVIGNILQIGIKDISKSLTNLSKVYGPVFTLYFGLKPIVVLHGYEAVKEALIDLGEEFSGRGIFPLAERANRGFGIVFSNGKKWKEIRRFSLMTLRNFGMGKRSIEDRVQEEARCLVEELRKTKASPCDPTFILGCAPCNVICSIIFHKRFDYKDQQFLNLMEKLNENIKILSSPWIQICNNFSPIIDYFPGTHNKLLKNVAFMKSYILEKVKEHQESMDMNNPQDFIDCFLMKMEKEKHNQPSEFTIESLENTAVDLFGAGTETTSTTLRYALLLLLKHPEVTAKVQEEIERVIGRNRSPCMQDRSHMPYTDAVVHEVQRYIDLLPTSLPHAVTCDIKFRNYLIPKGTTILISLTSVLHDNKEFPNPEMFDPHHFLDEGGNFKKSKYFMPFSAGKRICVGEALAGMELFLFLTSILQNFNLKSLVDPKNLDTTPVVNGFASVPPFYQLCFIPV

Cytochrome P450 2C19 = Cytochrome P450 2C19 (Homo sapiens, UniProt P33261); test: Inhibition of CYP2C19 in human liver microsomes at 5 uM using S-mephenytoin as substrate after 20 mins by LC-MS/MS analysis; assay type: ADME
Cytochrome P450 2D6 = Cytochrome P450 2D6 (Homo sapiens, UniProt P10635); test: Inhibition of CYP2D6 in human liver microsomes at 5 uM using dextromethorphan as substrate after 20 mins by LC-MS/MS analysis; assay type: ADME
Cytochrome P450 2D6, sequence (P10635 whole entry): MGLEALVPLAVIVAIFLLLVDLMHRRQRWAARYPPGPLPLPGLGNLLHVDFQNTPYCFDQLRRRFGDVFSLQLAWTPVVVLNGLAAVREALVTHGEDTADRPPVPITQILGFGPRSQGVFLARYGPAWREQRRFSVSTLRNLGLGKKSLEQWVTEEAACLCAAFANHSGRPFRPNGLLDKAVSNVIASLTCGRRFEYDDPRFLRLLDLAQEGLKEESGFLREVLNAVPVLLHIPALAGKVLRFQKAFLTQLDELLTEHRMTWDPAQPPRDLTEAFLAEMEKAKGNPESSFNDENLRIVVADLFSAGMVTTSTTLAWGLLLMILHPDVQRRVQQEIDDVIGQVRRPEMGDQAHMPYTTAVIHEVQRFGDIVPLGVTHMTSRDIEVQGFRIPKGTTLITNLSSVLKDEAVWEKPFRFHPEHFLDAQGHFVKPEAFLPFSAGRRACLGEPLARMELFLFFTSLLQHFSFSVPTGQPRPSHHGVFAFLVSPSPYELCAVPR

Cytochrome P450 3A4 = Cytochrome P450 3A4 (Homo sapiens, UniProt P08684); test: Inhibition of CYP3A4 in human liver microsomes at 5 uM using midazolam as substrate after 20 mins by LC-MS/MS analysis; assay type: ADME
Cytochrome P450 3A4, sequence (P08684 whole entry): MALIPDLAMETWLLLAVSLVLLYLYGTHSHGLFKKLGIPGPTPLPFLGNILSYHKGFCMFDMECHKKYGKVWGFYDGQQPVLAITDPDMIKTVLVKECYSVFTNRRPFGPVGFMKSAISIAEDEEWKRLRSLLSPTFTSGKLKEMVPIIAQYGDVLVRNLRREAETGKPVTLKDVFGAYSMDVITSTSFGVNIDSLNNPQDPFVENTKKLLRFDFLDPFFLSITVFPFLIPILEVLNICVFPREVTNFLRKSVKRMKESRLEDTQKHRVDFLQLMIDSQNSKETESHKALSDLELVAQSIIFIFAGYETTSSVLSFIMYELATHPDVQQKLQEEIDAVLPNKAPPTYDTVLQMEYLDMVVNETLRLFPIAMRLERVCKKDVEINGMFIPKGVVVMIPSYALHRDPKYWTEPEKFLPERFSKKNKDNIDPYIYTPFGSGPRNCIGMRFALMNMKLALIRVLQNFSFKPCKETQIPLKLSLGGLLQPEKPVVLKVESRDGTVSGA

[9] = Total clearance in BALB/c mouse at 1 mg/kg, iv or 3 mg/kg, po by LC-MS/MS analysis; assay type: ADME, organism-based; details: in vivo
[10] = Volume of distribution at steady state in BALB/c mouse at 1 mg/kg, iv or 3 mg/kg, po by LC-MS/MS analysis; assay type: ADME, organism-based; details: in vivo, read-out: Vdss
[11] = Half life in BALB/c mouse at 1 mg/kg, iv or 3 mg/kg, po by LC-MS/MS analysis; assay type: ADME, organism-based; details: in vivo
[12] = Cmax in BALB/c mouse at 1 mg/kg, iv or 3 mg/kg, po by LC-MS/MS analysis; assay type: ADME, organism-based; details: in vivo
[13] = Tmax in BALB/c mouse at 1 mg/kg, iv or 3 mg/kg, po by LC-MS/MS analysis; assay type: ADME, organism-based; details: in vivo
[14] = AUC (24 hrs) in BALB/c mouse at 3 mg/kg, po by LC-MS/MS analysis; assay type: ADME, organism-based; set-up: dose 3 mg/kg, time < 24 hr, route oral; details: in vivo
[15] = Unbound fraction in mouse plasma at 2 uM incubated for 6 hrs by LC-MS/MS analysis; assay type: ADME, cell-free
[16] = Oral bioavailability in BALB/c mouse at 3 mg/kg by LC-MS/MS analysis; assay type: ADME, organism-based; details: in vivo
Mus musculus [17] = test: Inhibition of TNP-Ficoll induced antibody production in po dosed BALB/c mouse administered twice daily measured on day 4 by ELISA; assay type: functional, organism-based
Mus musculus [18] = test: Inhibition of TNP-Ficoll induced antibody production in BALB/c mouse at 2 mg/kg, po qd measured on day 4 by ELISA; assay type: functional, organism-based

SMILES: COc1ncc(N2CCc3ncnc(-c4ccnc(NC5CCN(C)CC5)c4)c3C2)cc1C
IC50 [2]: 7 nM | IC50 [3]: > 10000 nM | IC50 [4]: > 10000 nM | IC50 [5]: > 10000 nM | IC50 (B-cell): 3.2 nM | CLint scaled at 0.2 µM [6]: 81 mL/min/kg | solubility at 20 h, 130 µM [7]: > 100 µM | Papp at 2 h, 50 µM [8]: 9.3 ×10⁻⁶ cm/s | inhibition (INH) (Cytochrome P450 1A2): Not Active | inhibition (INH) (Cytochrome P450 2C8): Not Active | inhibition (INH) (Cytochrome P450 2C9): Not Active | inhibition (INH) (Cytochrome P450 2C19): Not Active | inhibition (INH) (Cytochrome P450 2D6): Not Active | inhibition (INH) (Cytochrome P450 3A4): Not Active | clearance [9]: 21.9 mL/min/kg | Vd [10]: 7.17 L/kg | half-life [11]: 4 h | Cmax [12]: 160 ng/mL | Tmax [13]: 6 h | AUC at 24 h [14]: 2210 ng·h/mL | fraction unbound at 6 h, 2 µM [15]: 0.3 | bioavailability [16]: 97% | inhibition (Mus musculus [17]): Dose-dependent effect | inhibition (Mus musculus [18]): Active

SMILES: COc1ncc(N2CCc3ncnc(Nc4cccc(C(=O)NC5CCOCC5)c4)c3C2)cc1C
IC50 [2]: 49 nM

SMILES: COc1ncc(N2CCc3ncnc(-c4ccnc(NC5CCNCC5)c4)c3C2)cc1C
IC50 [2]: 25 nM | IC50 [3]: > 10000 nM | IC50 [4]: > 10000 nM | IC50 [5]: > 10000 nM | IC50 (B-cell): 24 nM

SMILES: COc1ncc(N2CCc3ncnc(-c4ccnc(NCc5ccccc5)c4)c3C2)cc1C
IC50 [2]: 87 nM

Now from value to molecule, other results behind:

inhibition [1]: 14%
SMILES: COc1ncc(N2CCc3ncnc(Nc4ccccc4)c3C2)cc1C

IC50 [2]: 39 nM
SMILES: COCCNc1cc(-c2ncnc3c2CN(c2cnc(OC)c(C)c2)CC3)ccn1

IC50 [2]: 45 nM
SMILES: COc1ncc(N2CCc3ncnc(-c4ccnc(OC5CCN(C)CC5)c4)c3C2)cc1C

IC50 [2]: 27 nM | IC50 [3]: 7300 nM
SMILES: COc1ncc(N2CCc3ncnc(-c4ccnc(N[C@H]5CC[C@H](O)CC5)c4)c3C2)cc1C
IC50 (B-cell): 24 nM

IC50 [2]: 120 nM
SMILES: CCOC(=O)c1cccc(Nc2ncnc3c2CN(c2cnc(OC)c(C)c2)CC3)c1

IC50 [2]: 150 nM
SMILES: COc1ncc(N2CCc3ncnc(-c4ccc(NC5CCOCC5)nc4)c3C2)cc1C
